System: NCI-H211 tumor spheroids, viability percent test/control
Assay: Anticancer human tumor NCI-H211 cell line growth inhibition;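 further: spheroids exposed to agents for seven days before readout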
Conditions: spheroids with HUVEC and MSC; for IC50: curve of first compound; for viability, T/C: stronger effect = lower value
Outline: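 Single agents and combinations were tested on spheroids built from tumor cells plus HUVEC and hMSC, at half-log dilutions starting at or near clinical Cmax, else 10 microM; final DMSO 0.25% (v/v).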

[1] = second compound 30 pM, first compound 0.00949 µM
[2] = second compound 30 pM, first compound 0.03 µM
[3] = second compound 30 pM, first compound 0.0949 µM
[4] = second compound 30 pM, first compound 0.3 µM
[5] = second compound 30 pM, first compound 0.949 µM
[6] = second compound 30 pM, first compound 3 µM
[7] = second compound 94.9 pM, first compound 0.00949 µM
[8] = second compound 94.9 pM, first compound 0.03 µM
[9] = second compound 94.9 pM, first compound 0.0949 µM
[10] = second compound 94.9 pM, first compound 0.3 µM
[11] = second compound 94.9 pM, first compound 0.949 µM
[12] = second compound 94.9 pM, first compound 3 µM
[13] = second compound 0.0003 µM, first compound 0.00949 µM
[14] = second compound 0.0003 µM, first compound 0.03 µM
[15] = second compound 0.0003 µM, first compound 0.0949 µM
[16] = second compound 0.0003 µM, first compound 0.3 µM
[17] = second compound 0.0003 µM, first compound 0.949 µM
[18] = second compound 0.0003 µM, first compound 3 µM
[19] = second compound 0.000949 µM, first compound 0.00949 µM
[20] = second compound 0.000949 µM, first compound 0.03 µM
[21] = second compound 0.000949 µM, first compound 0.0949 µM
[22] = second compound 0.000949 µM, first compound 0.3 µM
[23] = second compound 0.000949 µM, first compound 0.949 µM
[24] = second compound 0.000949 µM, first compound 3 µM
[25] = second compound 0.003 µM, first compound 0.00949 µM
[26] = second compound 0.003 µM, first compound 0.03 µM
[27] = second compound 0.003 µM, first compound 0.0949 µM
[28] = second compound 0.003 µM, first compound 0.3 µM
[29] = second compound 0.003 µM, first compound 0.949 µM
[30] = second compound 0.003 µM, first compound 3 µM

| Compound | IC50 (second compound 30 pM) [nM] | IC50 (second compound 94.9 pM) [nM] | IC50 (second compound 0.0003 µM) [nM] | IC50 (second compound 0.000949 µM) [nM] | IC50 (second compound 0.003 µM) [nM] | viability, T/C [3] [%] | viability, T/C [4] [%] | viability, T/C [5] [%] | viability, T/C [6] [%] | viability, T/C [9] [%] | viability, T/C [10] [%] | viability, T/C [11] [%] | viability, T/C [12] [%] | viability, T/C [15] [%] | viability, T/C [16] [%] | viability, T/C [17] [%] | viability, T/C [18] [%] | viability, T/C [21] [%] | viability, T/C [22] [%] | viability, T/C [23] [%] | other results |
| --- | --- | --- | --- | --- | --- | --- | --- | --- | --- | --- | --- | --- | --- | --- | --- | --- | --- | --- | --- | --- | --- |
| CNCc1ccc(-c2cc(-c3nc(-c4ccc(S(=O)(=O)C(C)C)cc4)cnc3N)on2)cc1 + COc1cc2c(cc1O)CCNC21CSC2c3c(OC(C)=O)c(C)c4c(c3C(COC1=O)N1C(O)C3Cc5cc(C)c(OC)c(O)c5C(C21)N3C)OCO4 | 22.8 | < 9.49 | < 9.49 | < 9.49 | < 9.49 | 2.15 | 0.93 | 0.77 | 0.11 | 1.02 | 0.78 | 0.59 | 0.11 | 0.73 | 0.7 | 0.5 | 0.1 | 0.88 | 0.66 | 0.34 | viability, T/C [1]: 93.2%; viability, T/C [2]: 36.2%; viability, T/C [7]: 8.16%; viability, T/C [8]: 1.5%; viability, T/C [13]: 0.82%; viability, T/C [14]: 0.84%; viability, T/C [19]: 1.01%; viability, T/C [20]: 0.87%; viability, T/C [24]: 0.11%; viability, T/C [25]: 0.11%; viability, T/C [26]: 0.11%; viability, T/C [27]: 0.09%; viability, T/C [28]: 0.1%; viability, T/C [29]: 0.1%; viability, T/C [30]: 0.15% |
| Cc1sc2c(c1C)C(c1ccc(Cl)cc1)=NC(CC(=O)Nc1ccc(O)cc1)c1nnc(C)n1-2 (stereo not given) + COc1cc2c(cc1O)CCNC21CSC2c3c(OC(C)=O)c(C)c4c(c3C(COC1=O)N1C(O)C3Cc5cc(C)c(OC)c(O)c5C(C21)N3C)OCO4 | < 9.49 | < 9.49 | < 9.49 | < 9.49 | < 9.49 | 0.66 | 0.42 | 0.31 | 0.33 | 0.53 | 0.42 | 0.33 | 0.43 | 0.45 | 0.61 | 0.4 | 0.4 | 0.47 | 0.25 | 0.04 | viability, T/C [1]: 45.6%; viability, T/C [2]: 4.36%; viability, T/C [7]: 4.74%; viability, T/C [8]: 0.91%; viability, T/C [13]: 0.79%; viability, T/C [14]: 0.61%; viability, T/C [19]: 0.76%; viability, T/C [20]: 0.61%; viability, T/C [24]: 0.09%; viability, T/C [25]: 0.1%; viability, T/C [26]: 0.09%; viability, T/C [27]: 0.09%; viability, T/C [28]: 0.08%; viability, T/C [29]: 0.1%; viability, T/C [30]: 0.3% |
| Cn1ncnc1[C@H]1c2n[nH]c(=O)c3cc(F)cc(c23)N[C@@H]1c1ccc(F)cc1 + COc1cc2c(cc1O)CCNC21CSC2c3c(OC(C)=O)c(C)c4c(c3C(COC1=O)N1C(O)C3Cc5cc(C)c(OC)c(O)c5C(C21)N3C)OCO4 | < 9.49 | < 9.49 | < 9.49 | < 9.49 | < 9.49 | 0.93 | 0.66 | 0.63 | 1 | 0.72 | 0.82 | 0.82 | 0.85 | 0.92 | 0.85 | 0.86 | 1.35 | 0.76 | 1.25 | 0.97 | viability, T/C [1]: 0.83%; viability, T/C [2]: 0.69%; viability, T/C [7]: 0.99%; viability, T/C [8]: 0.82%; viability, T/C [13]: 0.98%; viability, T/C [14]: 0.93%; viability, T/C [19]: 1%; viability, T/C [20]: 0.89%; viability, T/C [24]: 0.5%; viability, T/C [25]: 0.48%; viability, T/C [26]: 0.12%; viability, T/C [27]: 0.1%; viability, T/C [28]: 0.1%; viability, T/C [29]: 0.11%; viability, T/C [30]: 0.4% |
| O=C(c1cc(Cc2n[nH]c(=O)c3ccccc23)ccc1F)N1CCN(C(=O)C2CC2)CC1 + COc1cc2c(cc1O)CCNC21CSC2c3c(OC(C)=O)c(C)c4c(c3C(COC1=O)N1C(O)C3Cc5cc(C)c(OC)c(O)c5C(C21)N3C)OCO4 | 95.2 | < 94.9 | < 94.9 | < 94.9 | < 94.9 | 50.5 | 16.1 | 1.62 | 0.78 | 2.31 | 1.2 | 0.86 | 0.78 | 1.39 | 0.85 | 0.91 | 0.8 | 0.69 | 1.29 | 1.05 | viability, T/C (second compound 30 pM, first compound 9.49 µM): 0.73%; viability, T/C (second compound 30 pM, first compound 30 µM): 0.73%; viability, T/C (second compound 94.9 pM, first compound 9.49 µM): 0.78%; viability, T/C (second compound 94.9 pM, first compound 30 µM): 0.95%; viability, T/C (second compound 0.0003 µM, first compound 9.49 µM): 1.69%; viability, T/C (second compound 0.0003 µM, first compound 30 µM): 0.79%; viability, T/C [24]: 0.61%; viability, T/C (second compound 0.000949 µM, first compound 9.49 µM): 0.73%; viability, T/C (second compound 0.000949 µM, first compound 30 µM): 0.72%; viability, T/C [27]: 0.44%; viability, T/C [28]: 0.28%; viability, T/C [29]: 0.1%; viability, T/C [30]: 0.21%; viability, T/C (second compound 0.003 µM, first compound 9.49 µM): 0.25%; viability, T/C (second compound 0.003 µM, first compound 30 µM): 0.2% |

Reference: PubChem BioAssay AID1845209 (Molecular Pharmacology Branch, DTP, NCI, 2023)
